Source: patent EP1914304A1 (priority 1998, dated 1999)

What was measured:
[1] = test system: E. coli KY895 harboring HSV-1 TK mutant F1611; assay: Colony formation on acyclovir or AZT plates (secondary screen); type: cell-based; conditions: TK selection plates, 1 µg/mL thymidine + 1µg/mL acyclovir or 0.05 µg/mL AZT, 37°C, 16-24 hours
Protocol: (§1) […]. Mutant cultures were also spread onto duplicate TK selection and LB + carb^50 plates. One set of TK selection plates and LB + carb^50 plates were incubated at 42°C. All other plates were incubated at 37°C. After 16-24 hours the plates were scored.

[2] = test system: E. coli KY895 harboring HSV-1 TK mutant R163P/H164Q; assay: as above; type: cell-based; conditions: TK selection plates, 1 µg/mL thymidine + 1µg/mL acyclovir or 0.05 µg/mL AZT, 37°C, 16-24 hours
Protocol: as §1

[3] = test system: E. coli KY895 harboring HSV-1 TK mutant F161L; assay: as above; type: cell-based; set-up: key: (++) indicates that the same number of colonies were observed as compared to control plates; (+) indicates that fewer (<20% those observed with pMCC) and generally smaller (~50°,% smaller diameter) colonies were observed as compared to control plates; (-) indicates that no colonies were observed; conditions: TK selection plates, 1 µg/mL thymidine + 1µg/mL acyclovir or 0.05 µg/mL AZT, 37°C, 16-24 hours
Protocol: as §1

[4] = test system: E. coli KY895 harboring HSV-1 TK mutant F161C; assay: as above; type: cell-based; set-up: key: (++) indicates that the same number of colonies were observed as compared to control plates; (+) indicates that fewer (<20% those observed with pMCC) and generally smaller (~50°,% smaller diameter) colonies were observed as compared to control plates; (-) indicates that no colonies were observed; conditions: TK selection plates, 1 µg/mL thymidine + 1µg/mL acyclovir or 0.05 µg/mL AZT, 37°C, 16-24 hours
Protocol: as §1

[5] = test system: E. coli KY895 harboring HSV-1 TK mutant P155A/F161V; assay: as above; type: cell-based; set-up: key: (++) indicates that the same number of colonies were observed as compared to control plates; (+) indicates that fewer (<20% those observed with pMCC) and generally smaller (~50°,% smaller diameter) colonies were observed as compared to control plates; (-) indicates that no colonies were observed; conditions: TK selection plates, 1 µg/mL thymidine + 1µg/mL acyclovir or 0.05 µg/mL AZT, 37°C, 16-24 hours
Protocol: as §1

[6] = test system: E. coli KY895 harboring pMCC (wild-type HSV-1 TK); assay: as above; type: cell-based; set-up: key: (++) indicates that the same number of colonies were observed as compared to control plates; (+) indicates that fewer (<20% those observed with pMCC) and generally smaller (~50°,% smaller diameter) colonies were observed as compared to control plates; (-) indicates that no colonies were observed; conditions: TK selection plates, 1 µg/mL thymidine + 1µg/mL acyclovir or 0.05 µg/mL AZT, 37°C, 16-24 hours
Protocol: as §1

[7] = test system: E. coli KY895 harboring HSV-1 TK mutant F1611/R163H; assay: as above; type: cell-based; set-up: key: (++) indicates that the same number of colonies were observed as compared to control plates; (+) indicates that fewer (<20% those observed with pMCC) and generally smaller (~50°,% smaller diameter) colonies were observed as compared to control plates; (-) indicates that no colonies were observed; conditions: TK selection plates, 1 µg/mL thymidine + 1µg/mL acyclovir or 0.05 µg/mL AZT, 37°C, 16-24 hours
Protocol: as §1

[8] = test system: BHK tk- cells transfected with pREP8D7:dualGFP expressing wild-type TK; assay: ACV kill curves of transfectant pools; type: cell-based, baby hamster; conditions: Mesocricetus auratus, Table VII
Source text: (§2) The seven mutants were subcloned into the mammalian expression vector, pREP8D7:dualGFP. This vector contains a constitutive metallothionin promoter, which drives the expression of green flourescent protein (GFP), and an RSV LTR promoter, which stimulated expression of the TK mutants. The vector also contains a histidinol resistance gene for selection of transformants. Purified vector DNA of these constructs was used to transfect BHK tk- cells by electroporation. The transfectants were selected by resistance to histidinol and sorted using FACS analysis for GFP expression. Pools of transfectants were then assayed for sensitivity to GCV or ACV over a range of prodrug doses. […] Table VIII illustrates the IC50 values from Rat C6 kill curves with the SR11, SR26, and SR39 mutants.

[9] = test system: BHK tk- cells transfected with pREP8D7:dualGFP expressing TK mutant SR26; assay: ACV kill curves of transfectant pools; type: cell-based, baby hamster; conditions: Mesocricetus auratus, Table VII
Source text: as §2

[10] = test system: BHK tk- cells transfected with pREP8D7:dualGFP expressing TK mutant SR39; assay: ACV kill curves of transfectant pools; type: cell-based, baby hamster; conditions: Mesocricetus auratus, Table VII
Source text: as §2

[11] = test system: ts13 BHK tk- cells transfected with pCMV:30 (HSV-1 TK mutant 30); assay: Cell killing by GCV and ACV, Alamar Blue viability (ED50); type: cell-based, baby hamster; conditions: Mesocricetus auratus, 96 h; effective dose for 50% cell killing, after 4 days on nucleoside analog, pooled G418 resistant clones
Protocol: (§3) Briefly, the cell transfections are performed as follows. Approximately 5 x 10^5 ts13 BHK tk cells (ATCC CRL-1632) are plated on 100mm dishes in DMEM + 10% calf serum. For each transfection 1 µg of pSV2neo and 10µg of a pCMV construct (pCMV, pCMV:TK-wrong (HSVTK in the wrong orientation relative to the promoter), pCMV:HSVTK, pCMV:30, pCMV:75 or pCMV:132 DNA) in 0.25M CaCl2 are mixed with 0.5ml 2 x BBS (see Chen and Okayama) and preincubated at 37°C at 2.5% CO2 for […]. The CaCl2/DNA mix is added dropwise to the plates and mixed in well. After a 24 hour incubation at 37°C in a 2.5% CO2 wet incubator, the cells are rinsed twice with Dulbecco PBS minus Ca/Mg and fed with fresh DMEM + 10% calf serum. Plates are incubated at 37°C with 6% CO2. After 72 hours post-transfection the cells are split 1:3 and plated in DMEM + 10% calf serum containing G418 at 600µg/ml.
(§4) The cells are selected on G418 (600µg/ml) at 37°C for 17 days. […]. Approximately 30-40 clones are selected in this manner for each transfected DNA containing a tk gene in the correct orientation. The pCMV and pCMV:TK-wrong transfections yielded between 130 and 140 clones each. G418 resistant clones are harvested, pooled and plated at a density of 2000 cells/well in 100µl DMEM + 10% calf serum and 200µg/ml G418 + 6% CO2 in 96 well microtiter plates. […]. After three days in the presence of the nucleoside analog, Alamar Blue is added and 6 hours later the plates are scanned using a fluorometer as according to the manufacturer's protocol (Alamar Biosciences, Inc., Sacramento, CA). The plates are incubated a further 24 hours at 37°C and scanned again.
(§5) Determination of the fluorescence level of cells incubated in the presence of Alamar Blue directly relates to cell viability.

[12] = test system: ts13 BHK tk- cells transfected with pCMV:75 (HSV-1 TK mutant 75); assay: as above; type: cell-based, baby hamster; conditions: Mesocricetus auratus, 96 h; effective dose for 50% cell killing, after 4 days on nucleoside analog, pooled G418 resistant clones
Protocol: as §3, §4, §5

[13] = test system: ts13 BHK tk- cells transfected with pCMV:HSVTK (wild-type HSV-1 TK); assay: as above; type: cell-based, baby hamster; conditions: Mesocricetus auratus, 96 h; effective dose for 50% cell killing, after 4 days on nucleoside analog, pooled G418 resistant clones
Protocol: as §3, §4, §5

[14] = test system: ts13 BHK tk- cells transfected with pCMV:132 (HSV-1 TK mutant 132); assay: as above; type: cell-based, baby hamster; conditions: Mesocricetus auratus, 96 h; effective dose for 50% cell killing, after 4 days on nucleoside analog, pooled G418 resistant clones
Protocol: as §3, §4, §5

| SMILES | colony formation on nucleoside analogue plates [1] | colony formation on nucleoside analogue plates [2] | colony formation on nucleoside analogue plates [3] | colony formation on nucleoside analogue plates [4] | colony formation on nucleoside analogue plates [5] | colony formation on nucleoside analogue plates [6] | colony formation on nucleoside analogue plates [7] | IC50 [8] [nM] | IC50 [9] [nM] | IC50 [10] [nM] | IC50 [11] [nM] | IC50 [12] [nM] | IC50 [13] [nM] | IC50 [14] [nM] |
| --- | --- | --- | --- | --- | --- | --- | --- | --- | --- | --- | --- | --- | --- | --- |
| Cc1cn([C@H]2C[C@H](N=[N+]=[N-])[C@@H](CO)O2)c(=O)[nH]c1=O [AZT, 3' azido-3' thymidine] | + ((+) indicates that fewer (<20% those observed with pMCC) and generally smaller (~50°,% smaller diameter) colonies were observed as compared to control plates) | + ((+) indicates that fewer (<20% those observed with pMCC) and generally smaller (~50°,% smaller diameter) colonies were observed as compared to control plates) | ++ | - | + ((+) indicates that fewer (<20% those observed with pMCC) and generally smaller (~50°,% smaller diameter) colonies were observed as compared to control plates) | ++ | ++ |  |  |  |  |  |  |  |
| Nc1nc2c(ncn2COCCO)c(=O)[nH]1 [acyclovir] | + ((+) indicates that fewer (<20% those observed with pMCC) and generally smaller (~50°,% smaller diameter) colonies were observed as compared to control plates) | + ((+) indicates that fewer (<20% those observed with pMCC) and generally smaller (~50°,% smaller diameter) colonies were observed as compared to control plates) | ++ | + ((+) indicates that fewer (<20% those observed with pMCC) and generally smaller (~50°,% smaller diameter) colonies were observed as compared to control plates) | ++ | ++ | ++ | 200 | 35 | 30 | 18000 | 1250 | 25000 | 25000 |
